In patent US10105357B2, “Indication of antibiotic drugs for preparation of cancer inhibition pharmaceutical composition” (LAUNX BIOMEDICAL CO., LTD., priority 2014, dated 2018):

Assays:
T24 = test: Cell viability analysis, bladder cancer T24; type: cell-based, human; conditions: T24; repeated experiment
[1] = test system: PC3 (p53−) (Prostate Adenocarcinoma); test: Cell viability analysis, prostate cancer PC3; type: cell-based, human; conditions: PC-3; repeated experiment
[2] = test system: HCT116 (p53+) (Colorectal Carcinoma)
[3] = test system: MKN-45 (Gastric Adenocarcinoma); test: Cell viability analysis, gastric cancer MKN-45; type: cell-based, human; conditions: MKN-45; repeated experiment
[4] = test system: LoVo (Colorectal Adenocarcinoma); test: Cell viability analysis, colon cancer LoVo; type: cell-based, human; conditions: LoVo; repeated experiment
TOV-21G = test: Cell viability analysis, ovarian cancer TOV-21G; type: cell-based, human; conditions: TOV-21G; repeated experiment
[5] = test system: Hep3B (hepatocellular carcinoma); test: Cell viability analysis, hepatic cancer Hep3B; type: cell-based, human; conditions: Hep3B; repeated experiment
[6] = test system: TSGH-8301 (Urinary Bladder Carcinoma); test: Cell viability analysis, bladder cancer TSGH-8301; type: cell-based, human; conditions: TSGH-8301; repeated experiment
[7] = test system: MCF7 (Mammary Gland, Adenocarcinoma); test: Cell viability analysis, breast cancer MCF7; type: cell-based, human; conditions: MCF-7; repeated experiment
[8] = test system: 786-O (Renal adenocarcinoma); test: Cell viability analysis, renal cancer 786-O; type: cell-based, human; conditions: 786-O; repeated experiment
[9] = test system: BCC (basal cell carcinoma); test: Cell viability analysis, skin cancer BCC; type: cell-based, human; conditions: BCC; repeated experiment
[10] = test system: MDA-MB-231 (Mammary Gland, Adenocarcinoma); test: Cell viability analysis, breast cancer MDA-MB-231; type: cell-based, human; conditions: MDA-MB231; repeated experiment
[11] = test system: AGS (Gastric Adenocarcinoma); test: Cell viability analysis, gastric cancer AGS; type: cell-based, human; conditions: AGS; repeated experiment
NIH: OVCAR-3 = test: Cell viability analysis, ovarian cancer NIH: OVCAR-3; type: cell-based, human; conditions: NIH-OVCAR-3; repeated experiment
[12] = test system: C-33A (Cervical carcinoma); test: Cell viability analysis, cervical cancer C-33A; type: cell-based, human; conditions: C-33A; repeated experiment
U-2OS = test: Cell viability analysis, osteosarcoma U-2OS; type: cell-based, human; conditions: U2OS; repeated experiment
[13] = test system: HepG2 (Hepatocellular Carcinoma); test: Cell viability analysis, hepatic cancer HepG2; type: cell-based, human; conditions: HepG2; repeated experiment
[14] = test system: SAS (Tongue squamous cell carcinoma); test: Cell viability analysis, tongue cancer SAS; type: cell-based, human; conditions: SAS; repeated experiment

Structure (SMILES): CN[C@H](CC(C)C)C(=O)N[C@H]1C(=O)N[C@@H](CC(N)=O)C(=O)N[C@H]2C(=O)N[C@H]3C(=O)N[C@H](C(=O)N[C@H](C(=O)O)c4cc(O)cc(O)c4-c4cc3ccc4O)[C@H](O)c3ccc(c(Cl)c3)Oc3cc2cc(c3O[C@@H]2O[C@H](CO)[C@@H](O)[C@H](O)[C@H]2O[C@H]2C[C@](C)(N)[C@H](O)[C@H](C)O2)Oc2ccc(cc2Cl)[C@H]1O.Cl [Vancomycin HCl (Vancocin)]
- The results of antibiotic drug inhibiting cancer cell lines (cell viability analysis), T24 (T24): 95.32
- The results of antibiotic drug inhibiting cancer cell lines (cell viability analysis), PC-3 [1]: 104.2
- viability [2]: 94.8%
- The results of antibiotic drug inhibiting cancer cell lines (cell viability analysis), MKN-45 [3]: 116.9
- The results of antibiotic drug inhibiting cancer cell lines (cell viability analysis), LoVo [4]: 101
- The results of antibiotic drug inhibiting cancer cell lines (cell viability analysis), TOV-21G (TOV-21G): 97.4
- The results of antibiotic drug inhibiting cancer cell lines (cell viability analysis), Hep3B [5]: 94.6
- The results of antibiotic drug inhibiting cancer cell lines (cell viability analysis), TSGH-8301 [6]: 118
- The results of antibiotic drug inhibiting cancer cell lines (cell viability analysis), MCF-7 [7]: 91.83
- The results of antibiotic drug inhibiting cancer cell lines (cell viability analysis), 786-O [8]: 102.3
- The results of antibiotic drug inhibiting cancer cell lines (cell viability analysis), BCC [9]: 96.78
- The results of antibiotic drug inhibiting cancer cell lines (cell viability analysis), MDA-MB231 [10]: 90.26
- The results of antibiotic drug inhibiting cancer cell lines (cell viability analysis), AGS [11]: 108.9
- The results of antibiotic drug inhibiting cancer cell lines (cell viability analysis), NIH-OVCAR-3 (NIH: OVCAR-3): 105.6
- The results of antibiotic drug inhibiting cancer cell lines (cell viability analysis), C-33A [12]: 100.6
- The results of antibiotic drug inhibiting cancer cell lines (cell viability analysis), U2OS (U-2OS): 62.87
- The results of antibiotic drug inhibiting cancer cell lines (cell viability analysis), HepG2 [13]: 92.06
- The results of antibiotic drug inhibiting cancer cell lines (cell viability analysis), SAS [14]: 102
